According to ChEMBL document CHEMBL3885881, “DrugMatrix”:

Species on record: Rattus norvegicus
Test: DrugMatrix - Regimen: Daily Repeat
Format: toxicity, organism-based, Sprague-Dawley
Set-up: regimen Daily Repeat, gender Male, age 6-8 weeks
Settings: in vivo, po, 20 mg/kg, route oral GAVAGE, dose level Low, vehicle .5 % CMC; for ABSOLUTE BASOPHIL / ABSOLUTE EOSINOPHIL / ABSOLUTE LYMPHOCYTE / ABSOLUTE MONOCYTE / ABSOLUTE SEGMENTED NEUTROPHIL / BASOPHIL / EOSINOPHIL / ERYTHROCYTE COUNT / HEMATOCRIT / HEMOGLOBIN / LEUKOCYTE COUNT / LYMPHOCYTE / MEAN CORPUSCULAR HEMOGLOBIN / MEAN CORPUSCULAR HEMOGLOBIN CONCENTRATION / MEAN CORPUSCULAR VOLUME / MONOCYTE / NEUTROPHIL / NUCLEATED RED BLOOD CELLS / PLATELET COUNT: tissue Blood; for ALANINE AMINOTRANSFERASE / ALKALINE PHOSPHATASE / ASPARTATE AMINOTRANSFERASE / BLOOD UREA NITROGEN / CARBON DIOXIDE / CHLORIDE / CHOLESTEROL / CREATINE PHOSPHOKINASE / CREATININE / GLUCOSE / LACTATE DEHYDROGENASE / LIPASE / PHOSPHORUS / POTASSIUM / SODIUM / TOTAL BILIRUBIN / TOTAL PROTEIN / URIC ACID: tissue Plasma

O=C1CC2(CCCC2)CC(=O)N1CCCCN1CCN(c2ncccn2)CC1 [BUSPIRONE]
ABSOLUTE BASOPHIL (72 h, time 3 day): 0 CELLS/uL | ABSOLUTE EOSINOPHIL (72 h, time 3 day): 51 CELLS/uL | ABSOLUTE LYMPHOCYTE (72 h, time 3 day): 11615 CELLS/uL | ABSOLUTE MONOCYTE (72 h, time 3 day): 151.33 CELLS/uL | ABSOLUTE SEGMENTED NEUTROPHIL (72 h, time 3 day): 1416 CELLS/uL | BASOPHIL (72 h, time 3 day): 0% | EOSINOPHIL (72 h, time 3 day): 0.33% | ERYTHROCYTE COUNT (72 h, time 3 day): 5.69 x10E6/uL | HEMATOCRIT (72 h, time 3 day): 36.17% | HEMOGLOBIN (72 h, time 3 day): 14.1 G/DL | LEUKOCYTE COUNT (72 h, time 3 day): 13.23 x10E3/uL | LYMPHOCYTE (72 h, time 3 day): 87.67% | MEAN CORPUSCULAR HEMOGLOBIN (72 h, time 3 day): 24.73 pg | MEAN CORPUSCULAR HEMOGLOBIN CONCENTRATION (72 h, time 3 day): 39 G/DL | MEAN CORPUSCULAR VOLUME (72 h, time 3 day): 63.57 fL | MONOCYTE (72 h, time 3 day): 1% | NEUTROPHIL (72 h, time 3 day): 11% | NUCLEATED RED BLOOD CELLS (72 h, time 3 day): 0.33 /100WBC | PLATELET COUNT (72 h, time 3 day): 1072.33 x10E3/uL | ALANINE AMINOTRANSFERASE (72 h, time 3 day): 59.33 u/L | ALKALINE PHOSPHATASE (72 h, time 3 day): 480 u/L | ASPARTATE AMINOTRANSFERASE (72 h, time 3 day): 97 u/L | BLOOD UREA NITROGEN (72 h, time 3 day): 15 mg/dL | CARBON DIOXIDE (72 h, time 3 day): 23 mmol/L | CHLORIDE (72 h, time 3 day): 102 MEQ/L | CHOLESTEROL (72 h, time 3 day): 82.33 mg/dL | CREATINE PHOSPHOKINASE (72 h, time 3 day): 412 u/L | CREATININE (72 h, time 3 day): 0.23 mg/dL | GLUCOSE (72 h, time 3 day): 167 mg/dL | LACTATE DEHYDROGENASE (72 h, time 3 day): 304.33 u/L | LIPASE (72 h, time 3 day): 9 u/L | PHOSPHORUS (72 h, time 3 day): 13.47 mg/dL | POTASSIUM (72 h, time 3 day): 6.53 MEQ/L | SODIUM (72 h, time 3 day): 146.87 MEQ/L | TOTAL BILIRUBIN (72 h, time 3 day): 0.2 mg/dL | TOTAL PROTEIN (72 h, time 3 day): 6 G/DL | URIC ACID (72 h, time 3 day): 1.9 mg/dL | ABSOLUTE BASOPHIL (120 h, time 5 day): 0 CELLS/uL | ABSOLUTE EOSINOPHIL (120 h, time 5 day): 106.67 CELLS/uL | ABSOLUTE LYMPHOCYTE (120 h, time 5 day): 13027.67 CELLS/uL | ABSOLUTE MONOCYTE (120 h, time 5 day): 125.67 CELLS/uL | ABSOLUTE SEGMENTED NEUTROPHIL (120 h, time 5 day): 973.33 CELLS/uL | BASOPHIL (120 h, time 5 day): 0% | EOSINOPHIL (120 h, time 5 day): 0.67% | ERYTHROCYTE COUNT (120 h, time 5 day): 5.35 x10E6/uL | HEMATOCRIT (120 h, time 5 day): 34.23% | HEMOGLOBIN (120 h, time 5 day): 13.57 G/DL | LEUKOCYTE COUNT (120 h, time 5 day): 14.23 x10E3/uL | LYMPHOCYTE (120 h, time 5 day): 91.67% | MEAN CORPUSCULAR HEMOGLOBIN (120 h, time 5 day): 25.4 pg | MEAN CORPUSCULAR HEMOGLOBIN CONCENTRATION (120 h, time 5 day): 39.67 G/DL | MEAN CORPUSCULAR VOLUME (120 h, time 5 day): 64.03 fL | MONOCYTE (120 h, time 5 day): 1% | NEUTROPHIL (120 h, time 5 day): 6.67% | NUCLEATED RED BLOOD CELLS (120 h, time 5 day): 0 /100WBC | PLATELET COUNT (120 h, time 5 day): 1461 x10E3/uL | ALANINE AMINOTRANSFERASE (120 h, time 5 day): 42.33 u/L | ALKALINE PHOSPHATASE (120 h, time 5 day): 354 u/L | ASPARTATE AMINOTRANSFERASE (120 h, time 5 day): 77 u/L | BLOOD UREA NITROGEN (120 h, time 5 day): 14.67 mg/dL | CARBON DIOXIDE (120 h, time 5 day): 24.33 mmol/L | CHLORIDE (120 h, time 5 day): 102.33 MEQ/L | CHOLESTEROL (120 h, time 5 day): 67 mg/dL | CREATINE PHOSPHOKINASE (120 h, time 5 day): 241.33 u/L | CREATININE (120 h, time 5 day): 0.14 mg/dL | GLUCOSE (120 h, time 5 day): 154 mg/dL | LACTATE DEHYDROGENASE (120 h, time 5 day): 200.67 u/L | LIPASE (120 h, time 5 day): 8.33 u/L | PHOSPHORUS (120 h, time 5 day): 14.3 mg/dL | POTASSIUM (120 h, time 5 day): 7.16 MEQ/L | SODIUM (120 h, time 5 day): 144.93 MEQ/L | TOTAL BILIRUBIN (120 h, time 5 day): 0.23 mg/dL | TOTAL PROTEIN (120 h, time 5 day): 5.63 G/DL | URIC ACID (120 h, time 5 day): 1.97 mg/dL
